For the assay, the target named is T1, KCNQ 2/3 channels (HEK293 cells stably expressing human KCNQ2 and KCNQ3 subunits) (Homo sapiens, UniProt O43525+O43526).
T1 construct: expressed in transfected cells; host or cells: HEK293
The experiment in a line: KCNQ2/3 channel activation, thallium flux FLIPR assay (BTC-AM dye). Particulars: for Emax: HEK293, maximum response relative to response of retigabine at 10 μM (set at 100%), read-out: Max. %; for EC50: HEK293 cells expressing human KCNQ2 and KCNQ3, FLIPR thallium flux. The format is cell-based. A digest of the protocol:
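HEK293 cells stably expressing human KCNQ2/KCNQ3 were loaded with BTC-AM and exposed to compound for 4 min in pH 7.3 gluconate buffer with ouabain. Thallium flux was triggered with 6 mM TlNO3 and 10 mM K2SO4 (stock additions) and fluorescence (ex 488, em 540 nm) recorded for 3 min. EC50 came from responses over baseline; maximal response is relative to 10 μM retigabine (100%).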

Some results are limits rather than exact numbers.

For `CC(C)(C)CC(=O)Nc1nn2cccnc2c1C#Cc1ccc(OC(F)(F)F)cc1` [Example 156, 3,3-dimethyl-N-(3-{[4-(trifluoromethoxy)phenyl]ethynyl}pyrazolo[1,5-a]pyrimidin-2-yl)butanamide], the Emax turned out to be 40% and the EC50 lay within 1 to 10 µM.
For the compound `CC(C)(C)c1c(NC(=O)CCc2ccccc2)nn2cccnc12` [Example 129, N-(3-tert-butylpyrazolo[1,5-a]pyrimidin-2-yl)-3-phenylpropanamide], the Emax was 160% and the EC50 lay within 0.1 to 0.5 µM.
On to `CC(C)(C)CC(=O)Nc1nn2cccnc2c1-c1cccc(OC(F)(F)F)c1` [Example 22, 3,3-dimethyl-N-{3-[3-(trifluoromethoxy)phenyl]pyrazolo[1,5-a]pyrimidin-2-yl}butanamide], for which the Emax is 141% and the EC50 is 1 to 10 µM.
`COc1cccc(CC(=O)Nc2nn3cc(C)cnc3c2-c2ccc(F)cc2)c1` [Example 26, N-[3-(4-fluorophenyl)-6-methylpyrazolo[1,5-a]pyrimidin-2-yl]-2-(3-methoxyphenyl)acetamide]: the Emax worked out at 154% and the EC50 fell in the range of 0.5 to 1 µM.
Take `Cc1cnc2c(-c3cccc(OC(F)(F)F)c3)c(NC(=O)CC(C)(C)C)nn2c1` [Example 3, 3,3-dimethyl-N-{6-methyl-3-[3-(trifluoromethoxy)phenyl]pyrazolo[1,5-a]pyrimidin-2-yl}butanamide]: the Emax was 141% and the EC50 is 0.1 to 0.5 µM.
For `COc1cc(CC(=O)Nc2nn3cccnc3c2-c2cccc(F)c2)cc(OC)c1` [Example 138, 2-(3,5-dimethoxyphenyl)-N-[3-(3-fluorophenyl)pyrazolo[1,5-a]pyrimidin-2-yl]acetamide] the same measures were 11% and more than 10 µM.
Turning to `CC(C)(C)c1c(NC(=O)Cc2cc(F)cc(F)c2)nn2cccnc12` [Example 127, N-(3-tert-butylpyrazolo[1,5-a]pyrimidin-2-yl)-2-(3,5-difluorophenyl)acetamide], the Emax is 147% and the 50% effective concentration (EC50) is 0.1 to 0.5 µM.
With `Cc1ccnc2c(-c3ccc(F)cc3)c(NC(=O)Cc3ccc(F)cc3)nn12` [Example 28, 2-(4-fluorophenyl)-N-[3-(4-fluorophenyl)-7-methylpyrazolo[1,5-a]pyrimidin-2-yl]acetamide], the Emax was determined as 120% and the concentration for a half-maximal effect (EC50) lay in the range of 1 to 10 µM.
For `Cc1cnc2c(-c3cccc(C(F)(F)F)c3)c(NC(=O)CC(C)(C)C)nn2c1` [Example 63, 3,3-dimethyl-N-{6-methyl-3-[3-(trifluoromethyl)phenyl]pyrazolo[1,5-a]pyrimidin-2-yl}butanamide] the same measures were 125% and 0.1 to 0.5 µM.
As to `Cc1ccc(-c2c(NC(=O)Cc3ccccc3)nn3cccnc23)cc1F` [Example 19, N-[3-(3-fluoro-4-methylphenyl)pyrazolo[1,5-a]pyrimidin-2-yl]-2-phenylacetamide], the Emax worked out at 77% and the EC50 was 1 to 10 µM.
As to `CC(C)c1c(NC(=O)CC(C)(C)C)nn2cccnc12` [Example 113, N-(3-isopropylpyrazolo[1,5-a]pyrimidin-2-yl)-3,3-dimethylbutanamide], the Emax came out at 18% and the 50% effective concentration (EC50) was in the range of 0.1 to 0.5 µM.
On to `CC(C)c1c(NC(=O)CCC2CC2)nn2cccnc12` [Example 118, 3-cyclopropyl-N-(3-isopropylpyrazolo[1,5-a]pyrimidin-2-yl)propanamide], for which the Emax was 14% and the half-maximal effective concentration (EC50) is more than 10 µM.
Taken in the same sequence, the figures for `CCC1(c2c(NC(=O)CCC3CCCC3)nn3cccnc23)CCCCC1` [Example 145, 3-cyclopentyl-N-[3-(1-ethylcyclohexyl)pyrazolo[1,5-a]pyrimidin-2-yl]propanamide] were 182% and 0.1 to 0.5 µM.
For `Cc1ccnc2c(-c3ccc(OC(F)(F)F)cc3)c(NC(=O)CC3CC4CCC3C4)nn12` (racemic) [Example 160, (±)-exo-2-bicyclo[2.2.1]hept-2-yl-N-{7-methyl-3-[4-(trifluoromethoxy)phenyl]pyrazolo[1,5-a]pyrimidin-2-yl}acetamide] the same measures were 148% and less than 0.1 µM.
Regarding `CC(C)(CC(=O)Nc1nn2cccnc2c1-c1cccc(F)c1)c1ccccc1` [Example 128, N-[3-(3-fluorophenyl)pyrazolo[1,5-a]pyrimidin-2-yl]-3-methyl-3-phenylbutanamide], the Emax amounted to 96% and the 50% effective concentration (EC50) lay within 1 to 10 µM.
Regarding `COc1cccc(CC(=O)Nc2nn3c(C)cc(C)nc3c2-c2ccc(F)c(C)c2)c1` [Example 32, N-[3-(4-fluoro-3-methylphenyl)-5,7-dimethylpyrazolo[1,5-a]pyrimidin-2-yl]-2-(3-methoxyphenyl)acetamide], the Emax is 173% and the concentration giving a half-maximal response (EC50) fell in the range of 0.1 to 0.5 µM.
For `Cc1cc(C)n2nc(NC(=O)COC3CCCC3)c(-c3ccc(Cl)c(C)c3)c2n1` [Example 134, N-[3-(4-chloro-3-methylphenyl)-5,7-dimethylpyrazolo[1,5-a]pyrimidin-2-yl]-2-(cyclopentyloxy)acetamide], the Emax was 11% and the EC50 was more than 10 µM.
On to `Cc1cc(C)n2nc(NC(=O)CC3CCCCC3)c(-c3ccccc3)c2n1` [Example 94, 2-cyclohexyl-N-(5,7-dimethyl-3-phenylpyrazolo[1,5-a]pyrimidin-2-yl)acetamide], for which the Emax is 155% and the EC50 is less than 0.1 µM.
`O=C(CCC1CCCC1)Nc1nn2cccnc2c1-c1cccc(F)c1` [Example 135, 3-cyclopentyl-N-[3-(3-fluorophenyl)pyrazolo[1,5-a]pyrimidin-2-yl]propanamide]: the Emax was determined as 143% and the concentration for a half-maximal effect (EC50) was 0.1 to 0.5 µM.
Consider `O=C(Cc1cccnc1)Nc1nn2cccnc2c1-c1ccc(OC(F)(F)F)cc1` [Example 98, 2-(pyridin-3-yl)-N-{3-[4-(trifluoromethoxy)phenyl]pyrazolo[1,5-a]pyrimidin-2-yl}acetamide], for which the Emax came to 72.3% and the EC50 is more than 10 µM.
Taken in the same sequence, the figures for `O=C(CCC1CCCC1)Nc1nn2cccnc2c1-c1cccnc1` [Example 119, 3-cyclopentyl-N-[3-(pyridin-3-yl)pyrazolo[1,5-a]pyrimidin-2-yl]propanamide] were 52% and 1 to 10 µM.
For `Cc1cnc2c(-c3ccc(F)c(C)c3)c(NC(=O)CSC3CCCC3)nn2c1` [Example 143, 2-(cyclopentylthio)-N-[3-(4-fluoro-3-methylphenyl)-6-methylpyrazolo[1,5-a]pyrimidin-2-yl]acetamide], the Emax was determined as 162% and the EC50 was 0.1 to 0.5 µM.
For `O=C(CC1CCCC1)Nc1nn2cccnc2c1-c1cccc(C(F)(F)F)c1` [Example 64, 2-cyclopentyl-N-{3-[3-(trifluoromethyl)phenyl]pyrazolo[1,5-a]pyrimidin-2-yl}acetamide], the Emax is 113% and the concentration for a half-maximal effect (EC50) is more than 10 µM.
Take `O=C(CC12CC3CC(CC(C3)C1)C2)Nc1nn2cccnc2c1-c1ccc2ccccc2c1` [Example 116, 2-(adamantan-1-yl)-N-[3-(2-naphthyl)pyrazolo[1,5-a]pyrimidin-2-yl]acetamide]: the Emax is 98% and the concentration giving a half-maximal response (EC50) lay within 0.5 to 1 µM.
Turning to `Cc1ccnc2c(-c3cccc(C(F)(F)F)c3)c(NC(=O)CCC3CCCCC3)nn12` [Example 65, 3-cyclohexyl-N-{7-methyl-3-[3-(trifluoromethyl)phenyl]pyrazolo[1,5-a]pyrimidin-2-yl}propanamide], the Emax came to 56% and the half-maximal effective concentration (EC50) lay in the range of 0.1 to 0.5 µM.
With `Cc1cnc2c(C(C)(C)C)c(NC(=O)CC3CCCCC3)nn2c1` [Example 180, N-(3-tert-butyl-6-methylpyrazolo[1,5-a]pyrimidin-2-yl)-2-cyclohexylacetamide], the Emax worked out at 155% and the 50% effective concentration (EC50) lay in the range of 0.1 to 0.5 µM.
Turning to `CC(C)(C)c1c(NC(=O)CC23CC4CC(CC(C4)C2)C3)nn2cccnc12` [Example 107, 2-(adamantan-1-yl)-N-(3-tert-butylpyrazolo[1,5-a]pyrimidin-2-yl)acetamide], the Emax was 94% and the EC50 was 0.1 to 0.5 µM.
For `O=C(CCC1CCCC1)Nc1nn2cccnc2c1-c1ccc(C(F)(F)F)c(F)c1` [Example 88, 3-cyclopentyl-N-{3-[3-fluoro-4-(trifluoromethyl)phenyl]pyrazolo[1,5-a]pyrimidin-2-yl}propanamide] the same measures were 65% and 0.5 to 1 µM.
For the compound `CC(C)(C)OC(=O)Nc1nn2cccnc2c1/C=C/C1CCCCC1` [Example 177, tert-butyl {3-[(E)-2-cyclohexylvinyl]pyrazolo[1,5-a]pyrimidin-2-yl}carbamate], the Emax worked out at 51% and the EC50 was 1 to 10 µM.
For the compound `COc1ccc(CC(=O)Nc2nn3cc(C)cnc3c2-c2cccc(Cl)c2)cc1` [Example 50, N-[3-(3-chlorophenyl)-6-methylpyrazolo[1,5-a]pyrimidin-2-yl]-2-(4-methoxyphenyl)acetamide], the Emax turned out to be 100% and the EC50 fell in the range of 1 to 10 µM.
`O=C(Cc1ccc(F)cc1)Nc1nn2cccnc2c1-c1ccc(OC(F)(F)F)cc1` [Example 140, 2-(4-fluorophenyl)-N-{3-[4-(trifluoromethoxy)phenyl]pyrazolo[1,5-a]pyrimidin-2-yl}acetamide]: the Emax turned out to be 66% and the concentration giving a half-maximal response (EC50) is more than 10 µM.
Regarding `CC(C)(C)c1c(NC(=O)CCc2ccc(C(F)(F)F)cc2)nn2cccnc12` [Example 165, N-(3-tert-butylpyrazolo[1,5-a]pyrimidin-2-yl)-3-[4-(trifluoromethyl)phenyl]propanamide], the Emax was 178% and the EC50 was in the range of 0.1 to 0.5 µM.

As usually defined, the EC50 is the midpoint of the concentration-response curve. Read a high EC50 as a less potent agent.

(Values after patent US8609669B2, “Potassium channel modulators” (AbbVie Inc., priority 2010, dated 2013).)
